Where two headings read alike, the source gives them in different places.
What was measured:
[1] = Use alone, dilution with water or dispersion of the suspensions into fertilizer concentrates; assay type: physicochemical; details: 10-34-0, URAN 32, URAN 28 and 28-40% AMS
[2] = assay type: physicochemical; details: for crystal growth in the fertilizer solutions tested: review of table 2
Description: Crystal formation in a suspension concentrate is a complex phenomenon. It is believed that if the solubility of the suspended solid chemical is high in the medium, the suspension concentrate is prone to form crystals of the suspended solid chemical in storage. […] The concentrations of the solid pesticides used in this example were low (at a typical ready-to-apply concentration range). If a solid pesticide forms crystals in such a low concentration, it is not suitable for a ready-to-apply pesticide suspension and mostly likely will not be suitable for a more concentrated suspension in fertilizer. […] By “not suitable” is meant that although it may work to some extent, it is not a good candidate for the pesticide SC.
Samples were prepared by adding the components followed by hand-shaking.

[3] = 30 wt % captan suspension in 10-34-0: flow and storage stability (Example 12); assay type: physicochemical
Method: (§1) 10-34-0 fertilizer (56% ammonium polyphosphate by Plant Food Company Inc.) and Phospholan PS-413 surfactant were combined in a container and mixed thoroughly. Captan fungicide was added to the mixture and then the resulting combination was homogenized. The components were added in amounts to provide a composition containing 69.3 wt % of the 10-34-0 fertilizer solution (56% solution), 1.0 wt % surfactant and 29.7 wt % Captan fungicide.

[4] = Quick screening of crystal growth potential in fertilizer concentrates and water, solid pesticides containing a carboxylic acid group (Example 2); assay type: physicochemical; details: 1 wt % powder pesticide, 98 wt % 10-34-0, 1 wt % Witcolate D-510; between 0 C. and 40 C.
[5] = as above; assay type: physicochemical; details: for suitability for suspension in fertilizer solutions: review of table 3; for Comment: crystal growth: between 0 C. and 40 C.
Method: Samples were prepared by adding the components followed by hand-shaking. Samples were placed at 0° C. and observation was made after 1 day, unless otherwise specified.

[6] = assay type: physicochemical
Method: as §1, with “poly phosphate” for “polyphosphate”, “HE-6614” for “PS-413”, “Trifloxystrobin” for “Captan”, “62.38” for “69.3”, “[…]” for “29.7”

[7] = Stability of 50% clothianidin in 50% URAN 32 fertilizer (Example 6); assay type: physicochemical
Method: 0.5 g Witcolate D-510 surfactant was added into 100 g URAN 32 fertilizer solution (50 wt % URAN 32 in water). […] Then 100 g clothianidin was added to the resulting solution and mixed well by hand-shaking. This sample was stable and had about 10% top clear with a smooth bottom suspension after 2 weeks at 40° C.
(§2) In other experiments, 0.3% of a pH adjusting agent (40 wt % Citric acid), was included in the SC sample (homogenized sample) and no noticeable effect was observed on stability. Viscosity measurements were made with a Brookfield viscometer at various speeds (rpm) at room temperature with a #64 spindle. This sample was very viscous but it was highly shear-thinning.

[8] = Brookfield viscosity of 50% clothianidin in 50% URAN 32; assay type: physicochemical; details: #64 spindle
Description: as §2

[9] = Storage stability of 40% clothianidin SC in 10-34-0 with wetting agent Witcolate D-510 (Example 5); assay type: physicochemical; details: 10-34-0 with Witcolate D-510
Method: The test samples were prepared by adding 60 grams of 10-34-0 fertilizer (from Plant Food) to a bottle. Then various amounts of Witcolate D-510 (2-ethylhexyl sulfate) were added to the 10-34-0 fertilizer and mixed well. Finally, 40 grams of clothianidin (technical grade) was added to the mixture and mixed well by shaking by hand.

[10] = Suspension of clothianidin in 10-34-0 aqueous fertilizer, effect of concentration on stability (Example 3); assay type: physicochemical; details: review of table 4
Method: Various amounts of clothianidin were added to 10-34-0 fertilizer. Samples were shaken by hand until homogeneous.

[11] = 1 wt % powder pesticide in 99 wt % 10-34-0, no wetting agent
[12] = 1 wt % powder pesticide in 99 wt % 40% AMS, no wetting agent
[13] = 1 wt % powder pesticide in 99 wt % URAN 32, no wetting agent
[14] = 1 wt % powder pesticide in 99 wt % Water, no wetting agent
[15] = same SC, after a week at 50° C.
[16] = 1 wt % powder pesticide, 98 wt % 10-34-0, 1 wt % Witcolate D-510
[17] = powder pesticide (glyphosate acid 2, 2,4-D acid 1.3, others 1 wt %) in 10-34-0, no wetting agent
[18] = powder pesticide (glyphosate acid 2, 2,4-D acid 1.3, others 1 wt %) in 10-34-0, no wetting agent, 0° C., 1 day unless otherwise specified
[19] = powder pesticide (glyphosate acid 2, 2,4-D acid 1.3, others 1 wt %) in 40% AMS, no wetting agent, 0° C., 1 day unless otherwise specified
[20] = powder pesticide (glyphosate acid 2, 2,4-D acid 1.3, others 1 wt %) in URAN 32, no wetting agent, 0° C., 1 day unless otherwise specified
[21] = 1 wt % powder pesticide, 98 wt % 40% AMS, 1 wt % Witcolate D-510
[22] = 1 wt % powder pesticide, 98 wt % URAN 32, 1 wt % Witcolate D-510
[23] = 1 wt % powder pesticide, 98 wt % Water, 1 wt % Witcolate D-510

O=C1C2CC=CCC2C(=O)N1SC(Cl)(Cl)Cl (centres unmarked) [Captan]
used alone, diluted with water, dispersed to a fertilizer concentrate ([1]; 29.7 wt % Captan SC in 10-34-0, gentle stirring): without forming crystals or coagulation | Comment: powder sank or floated [2, 11]: 0-40 °C Powder sank. | Comment: suitability [2, 11]: Suitable | Comment: powder sank or floated [2, 12]: 0-40 °C Powder sank. | Comment: suitability [2, 12]: Suitable | Comment: powder sank or floated [2, 13]: 0-40 °C Powder sank. | Comment: suitability [2, 13]: Suitable | Comment: powder sank or floated [2, 14]: 0-40 °C Powder sank. | Comment: suitability [2, 14]: Suitable | crystal growth in the fertilizer solutions tested [2]: did not have crystal growth | flow and stability of the resulting SC ([3]; 29.7 wt % Captan, 69.3 wt % 10-34-0 solution, 1.0 wt % Phospholan PS-413, homogenized): easily flowable and stable | flow at 2° C. ([3]; same SC, 2° C.): still able to flow | phase separation [3, 15]: no visible phase separation

O=C(O)c1nc(Cl)ccc1Cl [Clopyralid]
Comment: crystal growth [4]: No crystal growth between 0 C. | Comment: suitability [5, 16]: Suitable | Comment: suitability [5, 17]: Suitable | Comment: crystal growth or other change [5, 18]: No crystal growth | Comment: dissolution [5, 18]: Not dissolved | Comment: powder sank or floated [5, 18]: Powder floated | Comment: crystal growth or other change [5, 19]: Crystal growth at room temp | Comment: dissolution [5, 19]: Not dissolved | Comment: powder sank or floated [5, 19]: Powder sank | Comment: suitability ([5]; powder pesticide (glyphosate acid 2, 2,4-D acid 1.3, others 1 wt %) in URAN 32, no wetting agent): Not suitable | Comment: dissolution [5, 20]: Dissolved | Comment: suitability ([5]; powder pesticide (glyphosate acid 2, 2,4-D acid 1.3, others 1 wt %) in Water, no wetting agent): Not suitable | Comment: dissolution ([5]; powder pesticide (glyphosate acid 2, 2,4-D acid 1.3, others 1 wt %) in Water, no wetting agent, 0° C., 1 day unless otherwise specified): Dissolved | suitability for suspension in fertilizer solutions [5]: may not be suitable

Nc1c(Cl)c(Cl)nc(C(=O)O)c1Cl [Picloram]
Comment: crystal growth [4]: No crystal growth between 0 C. | Comment: suitability [5, 16]: some floated. Suitable | Comment: powder sank or floated [5, 21]: Powder sank | Comment: suitability [5, 21]: Suitable | Comment: crystal growth [5, 21]: No crystal growth between 0 C. | Comment: powder sank or floated [5, 22]: Powder sank | Comment: suitability [5, 22]: Suitable | Comment: crystal growth [5, 22]: No crystal growth between 0 C. | Comment: powder sank or floated [5, 23]: Powder sank | Comment: suitability [5, 23]: Suitable | Comment: crystal growth [5, 23]: No crystal growth between 0 C. | Comment: suitability [5, 17]: Suitable | Comment: crystal growth or other change [5, 18]: No crystal growth between 0 C. | Comment: powder sank or floated [5, 18]: Powder sank | Comment: suitability ([5]; powder pesticide (glyphosate acid 2, 2,4-D acid 1.3, others 1 wt %) in 40% AMS, no wetting agent): Suitable | Comment: crystal growth or other change [5, 19]: No crystal growth between 0 C. | Comment: powder sank or floated [5, 19]: Powder sank | Comment: dissolution [5, 20]: Powder almost dissolved | suitability for suspension in fertilizer solutions [5]: appears to be suitable

CON=C(C(=O)OC)c1ccccc1CON=C(C)c1cccc(C(F)(F)F)c1 [Trifloxystrobin]
flow and stability of the resulting SC [6]: easily flowable and stable | flow at 2° C. ([6]; same SC, 2° C.): still able to flow | clear phase at the bottom [6, 15]: less than 2.5% | re-mixing ([6]; same SC, after a week at 50° C., inverting the container): remixed easily | used alone, diluted with water, dispersed to a fertilizer concentrate ([1]; 36.63 wt % Trifloxystrobin SC in 10-34-0): without forming crystal and coagulation | Comment: powder sank or floated [2, 11]: 0-40 °C Powder sank. | Comment: suitability [2, 11]: Suitable | Comment: powder sank or floated [2, 12]: 0-40 °C Powder sank. | Comment: suitability [2, 12]: Suitable | Comment: powder sank or floated [2, 13]: 0-40 °C Powder sank. | Comment: suitability [2, 13]: Suitable | Comment: powder sank or floated [2, 14]: 0-40 °C Powder sank. | Comment: suitability [2, 14]: Suitable | crystal growth in the fertilizer solutions tested [2]: did not have crystal growth

CN/C(=N\[N+](=O)[O-])NCc1cnc(Cl)s1 [clothianidin]
stability ([7]; 100 g clothianidin, 100 g URAN 32 fertilizer solution, 0.5 g Witcolate D-510, hand-shaking): stable | behaviour of the solid in URAN 32 ([7]; URAN 32, all concentrations): sank to the bottom at all concentrations | clothianidin concentration above which a paste resulted ([7]; URAN 32 system): higher than 55 wt % | separation ([7]; same composition, homogenization method): did not show noticeable separation | top clear ([7]; same sample, hand-shaking, after 2 weeks at 40° C.): about 10% | Viscosity, mPa-s, 24° C. ([8]; 1 RPM): 10200 mPa-s | Viscosity, mPa-s, 24° C. ([8]; 2 RPM): 6900 mPa-s | Viscosity, mPa-s, 24° C. ([8]; 4 RPM): 3900 mPa-s | Viscosity, mPa-s, 24° C. ([8]; 10 RPM): 2300 mPa-s | Viscosity, mPa-s, 24° C. ([8]; 20 RPM): 1500 mPa-s | Viscosity, mPa-s, 24° C. ([8]; 50 RPM): 1300 mPa-s | Viscosity, mPa-s, 24° C. ([8]; 100 RPM): 1200 mPa-s | clothianidin concentration above which the SC was difficult to prepare [9]: greater than 40 wt % | suspension of the powder in 10-34-0 [10]: without crystal formation and without coagulation

Reference: patent US20180265423A1, “Pesticide Dispersion in Concentrated Aqueous Fertilizer Solution” (priority 2014, published 2018)
